From patent US8404286B2, “Use of extracts or of extract compounds from Piper cubeba L. as active components in a medicament for the treatment of cancer” (Viridis Pharmaceutical Limited, priority 2007, dated 2013)

Key:
[1] = system: PC-3 cells; assay: Inhibition of the cell proliferation, PC-3 cells; assay type: cell-based; conditions: PC-3, 4 days, 10% FBS culture medium, versus solvent control
Method: (§1) With the liquid extract P9605 prepared according to example 1 were carried out cell proliferation tests. As control was carried along a typical substance of content of the cubeben fruits, the lignan Cubebin.
(§2) For the measurement of the inhibition of the cell proliferation this extract was added to LNCap and to PC-3 cells. The so treated cells were cultivated during 4 days in 10% FES culture medium.
(§3) For comparison the pure lignan Cubebin, that is contained in the extract prepared according to the invention and according to example 1 in an amount up to 20 m/m of the dry substance, was added also to LNCap and to PC-3 cells. The so treated cells were cultivated during 4 days in 10 FBS culture medium.
(§4) Thereby it was proceeded according to T. Lindl, Zell- und Gewebekultur, 4th revised edition, 2000, Spektrum Akademischer Verlag, Heidelberg.
(§5) All obtained datas are given in percents with regard to the solvent control (test without extract and without Cubebin); there are given the average values with Standard deviation from 4 experiments with 3-fold repetition.

[2] = system: LNCap cells; assay: Inhibition of the cell proliferation, LNCap cells; assay type: cell-based; conditions: 4 days, 10% FBS culture medium, versus solvent control
Method: as §1, §2, §3, §4, §5

[3] = system: prostate specific antigen (PSA); assay: Secretion of the prostate specific antigen (immuno-assay, PSA/DNA); assay type: cell-based; conditions: LNCap, 2 days, 10% CSS, different concentrations
[4] = system: androgen receptor; assay: Amount of androgen receptor by Western-blot analysis; assay type: cell-based; conditions: 2 days, 10% FBS
Method: The influence of the generation of androgen receptors by means of the liquid extract P9605 prepared according to example 1 was determined.
Thereby in one experiment LNCap cells were cultivated during 2 days in 10% FBS culture medium to which were added different concentrations either of the extract prepared according to the present invention or of the pure substance Cubebin.
Then was determined the change of the amount of the androgen receptor by means of the Western-blot analysis.
In FIG. 10 are shown the bands of the androgen receptor.

[5] = biological target: T1, 5α-reductase type II (Homo sapiens, UniProt P31213); assay: Inhibition of the 5α-reductase type II activity (HEK293 homogenate, 3H-testosterone to 3H-DHT); assay type: biochemical; conditions: homogenate of HEK293 cells over expressing the enzyme
T1 construct: expressed in transfected cells; host or cells: HEK293 (homogenate)
T1 sequence (P31213 1-254): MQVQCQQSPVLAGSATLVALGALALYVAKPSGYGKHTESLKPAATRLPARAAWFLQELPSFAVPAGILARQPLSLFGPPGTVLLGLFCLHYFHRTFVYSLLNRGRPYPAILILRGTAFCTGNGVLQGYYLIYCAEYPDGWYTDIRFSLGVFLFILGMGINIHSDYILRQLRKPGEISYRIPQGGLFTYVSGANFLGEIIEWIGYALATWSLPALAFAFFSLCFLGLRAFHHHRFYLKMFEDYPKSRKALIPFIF
Method: The inhibition of the 5α-reductase type II activity by means of the liquid extract P9605 prepared according to example 1 was determined.
The assay was realized with a homogenate of HEK293 cells that over express the 5α-reductase type II (Reichert W., Hartmann R. W. and Jose J.; 2001, Journal Enzyme Inhibition, Vol. 16, 47-53).
The influence of the extract prepared according to the present invention and of the pure substance Cubebin on the activity of the 5α-reductase type II was determined by means of the measurement of the conversion of ^3H-testosterone in ^3H-DHT.
As control substance was used the known 5α-reductase inhibitor “Finasterid”.
All obtained datas are given in percents with regard to the solvent control (test without extract); there are given the average values with Standard deviation from 4 experiments with 3-fold repetition.

[6] = system: LNCap cells; conditions: control value at zero extract; cited from earlier work
[7] = system: LNCap cells; assay: Apoptosis immuno-assay (mono and oligonucleosomes); assay type: cell-based; conditions: 2 days, 10% FBS
Method: The induction of apoptosis by means of the liquid extract P9605 prepared according to example 1 was determined.
As preliminary test was added for the measurement of the induction of apoptosis the tumor necrosis factor TNF-α alone as well as in combination with 100 nM dihydrotestosterone, abbreviated with DHT, to LNCap cells. The so treated cells were cultivated during 2 days in 10% FBS culture medium.
The apoptosis of the cells was measured by applying a commercial apoptosis-immuno-assay-kit in which are detected specifically the DNA and histon fragments that are present as mono and oligonucleosomes.
Analogous experiments were carried out with DHT alone as well as in combination with 10 μg/ml of the extract prepared according to the present invention.

[8] = system: LNCap cells; conditions: control value at zero extract; cited from earlier work; remark: listed apart in the source

Which “anti-proliferate effect on PC-3 cells” value [1] does the source give for `OC1OC[C@H](Cc2ccc3c(c2)OCO3)[C@H]1Cc1ccc2c(c1)OCO2` (mixture of isomers) [Cubebin] here?
Its value is “anti-proliferate effect on LNCap and PC-3 cells in dependency of the respective dose”.

And the “anti-proliferate effect on LNCap cells” value [2]?
Its value is “anti-proliferate effect on LNCap and PC-3 cells in dependency of the respective dose”.

What about the “inhibition of the secretion of PSA (PSA/DNA)” value [3] of the same compound?
The value was “inhibit the secretion of the prostate specific antigen (PSA) in dependency of the respective dose”.

What about the “androgen receptor denseness in LNCap cells” value [4] of the same compound?
The value was “reduced increasingly in dependency of the dose”.

What about the “IC50-value, 5α-reductase type II” value [5] of the same compound?
Its value is 9.9 µg/mL.

And the “inhibitive effect on the activity of the 5α-reductase type II” value [5]?
The value was “inhibitive effect”.

For `C[C@]12CCC(=O)C[C@@H]1CC[C@@H]1[C@@H]2CC[C@]2(C)[C@@H](O)CC[C@@H]12` [DHT, dihydrotestosterone], which “effect of DHT on the cell proliferation” value [6] is on record?
The value was “enhances the cell proliferation”.

And the “effect on the TNF-α induced apoptosis” value ([7]; TNF-α in combination with 100 nM DHT)?
The value was “revoked completely or nearly completely”.

What about the “effect of DHT on the DNA synthesis” value [8] of the same compound?
The value was “enhances the DNA synthesis”.

For `CC(C)(C)NC(=O)[C@H]1CC[C@H]2[C@@H]3CC[C@H]4NC(=O)C=C[C@]4(C)[C@H]3CC[C@]12C` [Finasterid], which “inhibitive effect on the activity of the 5α-reductase type II” value [5] is on record?
Its value is “inhibiting effect”.

For TNF-α, which induction of apoptosis ([7]; TNF-α alone) is on record?
Its induction of apoptosis is “induces the apoptosis of the tumor cells in dependency of the dose”.
